This note sets out measurements from ChEMBL document CHEMBL3351707, “Discovery and SAR of muscarinic receptor subtype 1 (M1) allosteric activators from a molecular libraries high throughput screen. Part 1: 2,5-dibenzyl-2H-pyrazolo[4,3-c]quinolin-3(5H)-ones as positive allosteric modulators” (Bioorg Med Chem Lett, 2015).

The source made the active and inactive calls. The rule behind the calls is not given here. Some results are limits rather than exact numbers.

Common to all, as to type: functional, cell-based
The target of assay [1] is T1, Muscarinic acetylcholine receptor M1 (Homo sapiens, UniProt P11229).
T1 sequence (P11229 whole entry): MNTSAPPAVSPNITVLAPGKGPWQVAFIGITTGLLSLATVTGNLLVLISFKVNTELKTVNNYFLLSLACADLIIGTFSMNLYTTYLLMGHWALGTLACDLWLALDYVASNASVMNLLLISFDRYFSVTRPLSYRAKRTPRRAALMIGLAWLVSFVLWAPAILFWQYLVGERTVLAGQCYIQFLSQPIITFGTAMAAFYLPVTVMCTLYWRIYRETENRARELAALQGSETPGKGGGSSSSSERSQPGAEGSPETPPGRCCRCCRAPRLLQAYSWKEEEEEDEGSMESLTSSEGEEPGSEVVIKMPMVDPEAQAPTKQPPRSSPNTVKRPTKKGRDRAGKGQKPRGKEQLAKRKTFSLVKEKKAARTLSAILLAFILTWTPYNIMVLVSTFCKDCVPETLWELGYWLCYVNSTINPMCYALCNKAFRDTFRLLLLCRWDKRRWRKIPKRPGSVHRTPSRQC
The assay is described as follows: (§1) Positive allosteric modulator activity at human muscarinic receptor subtype 1 expressed in CHO-K1 cells by calcium mobilization assay. (Calcium assays in cells follow changes in intracellular calcium, usually with a dye or a luminescent sensor.)

For assay [2], the target named is T2, Muscarinic acetylcholine receptor M1 (Homo sapiens) (UniProt P11229).
T2 sequence (whole entry): T1 sequence (P11229 whole entry)
The description is as §1.

In assay [3] the target is T2, Muscarinic acetylcholine receptor M1 (Homo sapiens). The assay is described as follows: Positive allosteric modulator activity at human muscarinic receptor subtype 1 expressed in CHO-K1 cells at 30 uM by calcium mobilization assay relative to acetylcholine.
Assay [4] shares this target. Briefly: Positive allosteric modulator activity at human muscarinic receptor subtype 1 expressed in CHO-K1 cells by calcium mobilization assay relative to acetylcholine.

As a reminder, the EC50 is the concentration giving half of the maximal effect. For `Cc1ccc(C)c(Cn2nc3c4ccccc4[nH]cc-3c2=O)c1`, the EC50 in assay [1] (read-out: EC50) was above 30000 nM.

Consider `Cn1cc(-c2ccc(Cn3nc4c5ccccc5[nH]cc-4c3=O)cc2)cn1`, for which the EC50 entry in assay [1] (cho-k1) is given as “Not Active”. In assay [2], the pEC50 entry was “inactive”.

Broadly, the Emax is the greatest response seen or fitted, relative to the assay's reference. Consider `O=c1c2cn(Cc3ccccc3)c3ccccc3c-2nn1Cc1ccccn1`, for which, in assay [1] (read-out: EC50), the EC50 is above 10000 nM. Also, the Emax in assay [3] was 59%.

Regarding `Cc1ccc(Cn2nc3c4ccccc4n(Cc4ccccc4F)cc-3c2=O)c(C)c1`, in assay [1] (read-out: EC50), the EC50 was found to be 656 nM. The Emax in assay [4] turned out to be 46%.

As to `Cc1ccc(Cn2nc3c4ccccc4n(Cc4ccccc4)cc-3c2=O)cc1`, the EC50 entry in assay [1] (cho-k1) was “Not Active”. For the same molecule, the pEC50 result in assay [2] is “inactive”.

Consider `O=c1c2cn(Cc3ccccc3)c3ccccc3c-2nn1Cc1cccnc1`, for which the EC50 in assay [1] (read-out: EC50) came out at 6310 nM. In addition, in assay [4], the Emax came to 65%.

Regarding `O=C1C(=O)N(Cc2ccc(-n3cccn3)cc2)c2ccccc21`, in assay [4], the Emax came out at 61%.

Regarding `COc1ccc(Cn2cc3c(=O)n(Cc4ccc(C)cc4C)nc-3c3ccccc32)cc1`, in assay [1] (read-out: EC50), the EC50 amounted to 821 nM. Further, the Emax in assay [4] is 39%.

As to `Cc1ccccc1Cn1nc2c3ccccc3n(Cc3ccccc3)cc-2c1=O`, the concentration for a half-maximal effect (EC50) in assay [1] (read-out: EC50) came out at 783 nM. Further, the Emax in assay [4] is 47%.

Turning to `Cn1cc(-c2ccc(Cn3cc4c(=O)[nH]nc-4c4ccccc43)c(F)c2)cn1`, in assay [1] (read-out: EC50), the EC50 worked out at 600 nM. In addition, the Emax in assay [4] was determined as 89%.

Regarding `Cn1nc2c3ccccc3n(Cc3ccccc3)cc-2c1=O`, the concentration giving a half-maximal response (EC50) in assay [1] (read-out: EC50) is above 10000 nM. Moreover, the Emax in assay [3] was 48%.

Consider `O=c1c2cn(Cc3ccccc3)c3ccccc3c-2nn1Cc1ccncc1`, for which, in assay [1] (read-out: EC50), the EC50 is above 10000 nM. Besides, the Emax in assay [3] is 54%.

On to `Cc1ccc(Cn2nc3c4ccccc4n(Cc4cccc(F)c4)cc-3c2=O)c(C)c1`, for which the EC50 in assay [1] (read-out: EC50) was 1420 nM. Further, the Emax in assay [4] was 31%.

With `Cc1ccc(Cn2nc3c4ccccc4n(Cc4ccc(F)cc4)cc-3c2=O)c(C)c1`, the EC50 in assay [1] (read-out: EC50) was determined as 2020 nM. Moreover, in assay [4], the Emax turned out to be 47%.

For the molecule `Cc1ccc(Cn2nc3c4ccccc4n(C)cc-3c2=O)c(C)c1`, the EC50 entry in assay [1] (cho-k1) is “Not Active”. Further, the pEC50 result in assay [2] was “inactive”. Moreover, in assay [4], the Emax entry is “inactive”.

In the case of `O=C1C(=O)N(Cc2ccccc2)c2ccccc21`, the Emax in assay [4] turned out to be 34%.

Regarding `Cn1nc2c3ccccc3n(Cc3ccc(-n4cccn4)cc3)cc-2c1=O`, in assay [1] (read-out: EC50), the EC50 is 2430 nM. For the same molecule, in assay [4], the Emax came to 88%.

`O=c1c2cn(Cc3ccc(-n4cccn4)cc3)c3ccccc3c-2nn1Cc1ccccc1`: the EC50 in assay [1] (read-out: EC50) is above 10000 nM. The Emax in assay [3] was determined as 50%.

Turning to `Cc1ccc(Cn2nc3c4ccccc4n(Cc4cccnc4)cc-3c2=O)c(C)c1`, the EC50 in assay [1] (read-out: EC50) is 3660 nM. Also, the Emax in assay [4] turned out to be 75%.

`O=c1c2cn(Cc3ccccc3)c3ccccc3c-2nn1Cc1cccc(F)c1`: the half-maximal effective concentration (EC50) result in assay [1] (cho-k1) was “Not Active”. Besides, the pEC50 entry in assay [2] was “inactive”.

Turning to `Cc1ccc(C)c(CN2C(=O)C(=O)c3ccccc32)c1`, in assay [1] (cho-k1), the EC50 entry is reported as “Not Active”.

`Cc1cccc(Cn2nc3c4ccccc4n(Cc4ccccc4)cc-3c2=O)c1`: the EC50 entry in assay [1] (cho-k1) is recorded as “Not Active”. For the same molecule, in assay [2], the pEC50 result is “inactive”.

Turning to `Cc1cc(NC(=O)CS(=O)(=O)c2cn(Cc3ccc(-c4cnn(C)c4)nc3)c3cc(F)cc(F)c23)no1`, the EC50 in assay [1] (read-out: EC50) worked out at 845 nM.

As for `O=c1c2cn(Cc3ccccc3)c3ccccc3c-2nn1Cc1ccccc1F`, the EC50 in assay [1] (read-out: EC50) was found to be 1010 nM. In addition, the Emax in assay [4] was 36%.

Turning to `Cc1ccc(Cn2nc3c4ccccc4n(Cc4ccccn4)cc-3c2=O)c(C)c1`, the EC50 in assay [1] (read-out: EC50) worked out at 3790 nM. In addition, the Emax in assay [4] was found to be 83%.

Consider `Cc1ccc(Cn2nc3c4ccccc4n(Cc4ccncc4)cc-3c2=O)c(C)c1`, for which the half-maximal effective concentration (EC50) in assay [1] (read-out: EC50) came out at 1550 nM. The Emax in assay [4] was 82%.

As for `Cc1ccc(Cn2nc3c4ccccc4n(Cc4ccc(-n5cccn5)cc4)cc-3c2=O)c(C)c1`, the EC50 in assay [1] (read-out: EC50) stood at 1150 nM. Also, the Emax in assay [4] was found to be 80%.

Consider `O=c1c2c[nH]c3ccccc3c-2nn1[C@@H]1CCCC[C@H]1O`, for which the EC50 entry in assay [1] (cho-k1) is on record as “Not Active”. Moreover, the pEC50 result in assay [2] was “inactive”.

`COc1ccc(Cn2cc3c(=O)n(Cc4ccc(C)cc4C)nc-3c3ccccc32)c(F)c1`: the EC50 entry in assay [1] (cho-k1) is listed as “Not Active”. Moreover, the pEC50 result in assay [2] was “inactive”. For the same molecule, the Emax entry in assay [4] is “inactive”.

Consider `O=c1c2cn(Cc3ccccc3)c3ccccc3c-2nn1Cc1ccc(F)cc1`, for which the EC50 entry in assay [1] (cho-k1) was “Not Active”. For the same molecule, the pEC50 result in assay [2] is “inactive”.

Turning to `O=c1[nH]nc2c3ccccc3n(Cc3ccc(-n4cccn4)cc3)cc1-2`, in assay [1] (read-out: EC50), the EC50 turned out to be 1200 nM. Further, the Emax in assay [4] amounted to 83%.

On to `Cc1ccc(C)c(Cn2nc3c4ccccc4n(Cc4ccccc4)cc-3c2=O)c1`, for which the EC50 in assay [1] (read-out: EC50) was determined as 473 nM. Besides, the Emax in assay [4] is 40%.

Turning to `O=c1c2cn(Cc3ccccc3)c3ccccc3c-2nn1Cc1ccccc1`, in assay [1] (cho-k1), the EC50 entry is listed as “Not Active”. In addition, the pEC50 result in assay [2] is “inactive”.

For `Cc1ccc(Cn2nc3c4ccccc4n(Cc4ccccc4C)cc-3c2=O)c(C)c1`, the EC50 entry in assay [1] (cho-k1) is “Not Active”. The pEC50 entry in assay [2] was “inactive”. Besides, in assay [4], the Emax entry is “inactive”.

As to `O=c1c2c[nH]c3ccccc3c-2nn1Cc1ccc(-n2cccn2)cc1`, in assay [1] (cho-k1), the EC50 result is recorded as “Not Active”. Also, the pEC50 result in assay [2] was “inactive”.

Turning to `Cc1ccc(Cn2nc3c4ccccc4n(Cc4ccc(-c5cnn(C)c5)cc4F)cc-3c2=O)c(C)c1`, the EC50 in assay [1] (read-out: EC50) worked out at 1940 nM. Besides, the Emax in assay [4] worked out at 74%.

On to `Cc1ccc(Cn2cc3c(=O)n(Cc4ccc(C)cc4C)nc-3c3ccccc32)cc1`, for which the EC50 entry in assay [1] (cho-k1) is “Not Active”. The pEC50 entry in assay [2] was “inactive”. In addition, in assay [4], the Emax result is “inactive”.

On to `Cc1cccc(Cn2cc3c(=O)n(Cc4ccc(C)cc4C)nc-3c3ccccc32)c1`, for which, in assay [1] (cho-k1), the EC50 entry is “Not Active”. Also, the pEC50 result in assay [2] is “inactive”. For the same molecule, the Emax result in assay [4] is “inactive”.
